# Measured values from US10526357B2, “Pharmaceutical compounds” (Rafael Pharmaceuticals, Inc., priority 2014, dated 2020).
# Tests used:
# Assay type in all cases: cell-based
# [1] = tested on: BXPC3 human pancreatic cancer cells; assay: CellTiter Glo (CTG) cell viability assay, in vitro cell killing, BXPC3; details: 24 h treatment, 0.5% serum and 0.05% DMSO, relative to untreated control; for viability at 50 µM: BXPC-3, 50 μM, read-out: % avg live cells @ 50 μM (% Viable Cells Remaining); for viability at 100 µM: BXPC-3, 100 μM, read-out: % avg live cells @ 100 μM (% Viable Cells Remaining)
# Excerpt: (§1) The objective of this investigation was to assess the in vitro cell killing activities of analogs of lipoic acid in BXPC3 human pancreatic, H460 non small lung carcinoma, and SF539 human gliosarcoma cancer cells.
# (§2) Three human tumor cell types, BXPC3 human pancreatic cancer, H460 non small lung carcinoma, and SF539 human gliosarcoma, were used in this investigation. The BXPC3 and H460 cells were originally obtained from American Type Cell Culture (ATCC). The SF539 cells were originally obtained from the NCI AIDS and Cancer Specimen Bank (ACSB). All tumor cells were maintained at 37° C. in a humidified 5% CO2 atmosphere in T75 tissue culture flasks containing 20 mL of Roswell Park Memorial Institute (RPMI) 1640 containing 2 mM L-glutamine, 10% FBS and 1% penicillin and streptomycin (100 IU/mL penicillin and 100 μg/mL streptomycin). The tumor cells were split at a ratio of 1:5 every 4-5 days by trypsinization and resuspended in fresh medium in a new flask. Cells were harvested for experiments at 70-90% confluency.
# (§3) Stock solutions of each analog were prepared at a concentration of 200 and 100 mM in DMSO. Five μL of this solution was diluted in 10.0 mL of 0.5% serum containing RPMI media to give the desired 100 μM and 50 μM solutions in 0.05% DMSO.
# (§4) The cancer cells were seeded at 4000 cells/well for H460 cells and 6000 cells/well for BXPC3 and SF 539 cells and incubated 24 hours. The killing activity of analogs was assayed at 50 μM and 100 μM concentrations. The tumor cells were treated for 24 hours with the test article, and after 24 hours of treatment the number of viable tumor cells was determined using the CTG assay.
# (§5) The number of cells targeted for the study is 4×10^3 per well for H460 cells and 6×10^3 per well for BXPC3 and SF539 cells in 100 μL of medium. The actual number of cells were counted and seeded in the wells of a 96 well-plate. The cells were incubated for approximately 24 hours before addition of test article.
# (§6) The media in the plate was removed by aspiration, and 100 μL of the test article at a final concentration of 50 μM or 100 μM was added to the cells. After exposure to the test articles for 24 hours, the number of viable cells in each well was determined and the percent of viable cells relative to control (in the absence of test article) were calculated. Additionally, a set of wells was treated with cell culture medium in the absence of cells to obtain a value for background luminescence. A separate set of cells was seeded at the same time in a clear 96-well plate and observed under the microscope at 24 hours, following addition of the test article to estimate the amount of cells present after treatment.
# (§7) The number of viable cells was determined by using the CTG assay. Specifically, reagents were mixed and allowed to come to room temperature according to instructions from Promega, Inc. (Madison, Wis.). Cell plates were removed from the cell culture incubator and left on the bench for thirty minutes until they reached room temperature. 100 μL per well of CTG reagent was added with the 12-channel Eppendorf pipettor. The cells were lysed by shaking the plate for two minutes in a shaker. The cells were kept in room temperature for ten minutes to stabilize the luminescent signal. The luminescence was measured using the FLUOstar OPTIMA plate reader (BMG Labtech, Inc., Durham, N.C.).
# (§8) Data from luminescence readings was copied onto EXCEL spreadsheets, and cell growth relative to untreated cells was calculated, using the following equation: […]
# [2] = tested on: H460 non small lung carcinoma cells; assay: CellTiter Glo (CTG) cell viability assay, in vitro cell killing, H460; details: Homo sapiens, 24 h treatment, 0.5% serum and 0.05% DMSO, relative to untreated control; for viability at 50 µM: NCI-H460, 50 μM, read-out: % avg live cells @ 50 μM (% Viable Cells Remaining); for viability at 100 µM: NCI-H460, 100 μM, read-out: % avg live cells @ 100 μM (% Viable Cells Remaining)
# Excerpt: as §1, §2, §3, §4, §5, §6, §7, §8
# [3] = tested on: SF539 human gliosarcoma cells; assay: CellTiter Glo (CTG) cell viability assay, in vitro cell killing, SF539; details: 24 h treatment, 0.5% serum and 0.05% DMSO, relative to untreated control; for viability at 50 µM: SF-539, 50 μM, read-out: % avg live cells @ 50 μM (% Viable Cells Remaining); for viability at 100 µM: SF-539, 100 μM, read-out: % avg live cells @ 100 μM (% Viable Cells Remaining)
# Excerpt: as §1, §2, §3, §4, §5, §6, §7, §8
Compound,viability at 50 µM [1],viability at 100 µM [1],viability at 50 µM [2],viability at 100 µM [2],viability at 50 µM [3],viability at 100 µM [3]
CCCCCCC(CCSCc1ccccc1)SCc1ccccc1 (stereo not drawn) [A],84%,75%,89%,70%,100%,98%
COCCCCCC(CCSCc1ccccc1)SCc1ccccc1 (stereo not drawn) [B],84%,91%,97%,67%,99%,99%
N#CCCCCC(CCSCc1ccccc1)SCc1ccccc1 (stereo not drawn) [C],70.9%,36.1%,69.8%,27.1%,74.9%,23.2%
c1ccc(CSCCC(CCCCc2nn[nH]n2)SCc2ccccc2)cc1 (stereo not drawn) [D],0.3%,3.9%,4.1%,2.7%,2.1%,0.1%
O=S(=O)(O)CCCCC(CCSCc1ccccc1)SCc1ccccc1 (stereo not drawn) [E],0%,0%,0%,0.3%,0%,0%
O=C(O)CCOCC(CCSCc1ccccc1)SCc1ccccc1 (stereo not drawn) [G],99.7%,41.7%,102%,37.6%,91.6%,30.3%
